Test results from patent publication US20090093538A1, “Method for treating cancer” (priority 2007, published 2009).

What was measured:
Hsp70 [1] = assay: Cell surface expression of Hsp70, CEM cells (immunofluorescence); format: cell-based; conditions: 3 hrs
Procedure: (§1) After treatment, cells were rinsed one time in PBS then fixed in 2% Paraformaldehyde at room temperature for 20 minutes. Slides with the fixed cells were rinsed with PBS two times. Primary antibody mouse monoclonal anti-Hsp70 (Stressgen SPA-8 10) was diluted 1:100 in PBS and the slides were incubated 1 hour at 37° C. The slides were rinsed two times with PBS. Secondary antibody anti-mouse AlexaFluor 488 (Molecular Probes A-11001) was diluted 1:500 in PBS and the slides were incubated 30 min at 37° C. The slides were rinsed two times in PBS. DAPI (Molecular Probes D-3571) were diluted 1:10,000 in PBS and the slides were incubated at room temperature in dark for 5 min. The slides were rinsed two times in PBS, then once in deionized water and left to dry in dark until almost completely dry. Coverslips were mounted with Prolong Anti-fade Mounting Media (Molecular Probes P-748 1). The images were captured with a monochrome CCD camera SenSys (see FIGS. 27A-D and 28A-D) or by confocal microscopy (see FIG. 29A-E). In FIGS. 27A-D and 28A-D, the bright pink color on the surface of the MCF-7 cells (FIG. 27A-D) or CEM cells (FIG. 28A-D) indicates Hsp70 on the surface of the cells. In FIG. 29A-E the bright green color on the surface of the cell indicates Hsp70 on the surface of the HT29 cells.

[2] = human, in vivo
Ramos cells = assay: ROS generation, carboxy-H2DCFDA probe, flow cytometry; format: cell-based
Procedure: In these experiments, we monitored the production of ROS using the cell permeable Carboxy-H2DCFDA probe. When this probe is oxidized by ROS, it emits a green fluorescence that can be detected using flow cytometry or fluorescent microscopy. […] 25 μM carboxy-H2DCFDA (Invitrogen. C400) working solution was added to cover the cells, and the cells were incubate for 30 minutes at 37° C., protected from light. The cells were gently washed three times in warm HBSS/Ca/Mg. ROS levels, as determined by fluorescence intensity, were determined by flow cytometry (excitation at 495 nm, emission at 529 nm).
Tiron is a direct scavenger of ROS and is a potent inhibitor of oxidative stress.
Ramos cells were treated with elesclomol (500 nM) for the indicated times then washed gently once with warm HBSS/Ca/Mg (Invitrogen Carlsbad, Calif. Cat# 14025). 25 μM carboxy-H2DCFDA (Invitrogen Cat #C400) working solution was added to cover the cells and they were incubated for 30 minutes at 37° C., protected from light. The cells were gently washed three times in warm HBSS/Ca/Mg. ROS levels (fluorescence intensity) were determined by flow cytometry (excitation at 495 nm, emission at 529 nm) using a Becton Dickinson FACSCalibur equipped with CellQuest Pro software. Data is plotted as percent of elesclomol-treated cells with DCFDA fluorescence relative to DMSO (control) treated cells (see FIG. 49).

HMEC and HRE cells = assay: Lysis of target cells by mouse splenocytes (MTS assay); format: cell-based, human; conditions: non-cancerous HMEC and HRE cells; 0.1 or 0.5 μM, about 15 hours; splenocytes 10:1, 24 hours
Procedure: (§2) MDA-MB-435 cells were purchased from American Type culture collection. Human mammary epithelial (HMEC), human renal epithelial (HRE) cells and medium for maintaining the cells were obtained from Cambrex Bioproducts. Mouse splenocytes were isolated form CD1 nude mice (Jackson Lab). […] Mouse splenocytes were isolated from Nude mice and mixed with MDA-MB-435, HMEC and HRE cells at ratio of 10:1. The mixed cells were incubated at 37° C. for 24 hours in the tissue culture medium and MTS assay was performed to measure viability of the cells with an ELISA reader (DYNEX Technologies). Cytotoxicity (C) was calculated based on an equation below: C=[1-([…])]×100%

MDA-MB-435 cells = assay: as above; format: cell-based, human; conditions: 0.1 or 0.5 μM, about 15 hours, splenocytes 10:1, 24 hours
Procedure: as §2

p38 kinase = assay: p38 phosphorylation, Western blot, MDA-MB-435 cells; format: cell-based, human; conditions: 10, 50, 100, 500 or 1000 nM, 4 hours
Procedure: After treatment the cells were lysized and used for Western blot analysis.
Samples were run on a SDS-PAGE gel and proteins were transferred onto a nitrocellulose membrane by a semi-dry transfer. Nitrocellulose was blocked with 5% skim milk in TBS with 0.5% Tween at room temperature for 1 hour and then probed with anti-phospho-p38 (Cell Signaling, #9216) antibody. The nitrocellulose was then probed with secondary antibodies, HRP-conjugated goat anti-rabbit IgG and HRP-conjugated horse anti-mouse IgG (#7074, #7076, Cell Signaling). LumiGLO reagent, 20× Peroxide (#7003, Cell Signaling) was used to visualize gel (see FIG. 35).

Hsp70 [3] = assay: Hsp70 RNA induction, quantitative PCR, Hs294T cells; format: cell-based, human; conditions: 100 nM
Procedure: […] 500 ng of RNA from each sample was used for cDNA synthesis using iScript cDNA Synthesis Kit (Biorad, Cat# 170-8891). 1 uL of cDNA mixture was used with the iQ SYBR Green Supermix (Biorad, Cat# 170-8882) to perform quantitative PCR in an iCycler machine (Biorad) using standard protocols. QPCR for each sample/time point was performed in duplicate. The following primers for inducible human Hsp70 and gapdh were used:
Ct values were obtained from the iCycler program and used in an equation (2^−ΔΔCT) for determining the amount of target relative to gapdh expression. This compares the relative expression of Hsp70 to the corresponding levels of gapdh in each sample. Duplicate wells were averaged and graphed with their corresponding standard deviation.
Activation of HSF-1 by oxidative stress has been reported in the literature to require p38 kinase signaling in some cell lines.

Hsp70 [4] = assay: Cell surface expression of Hsp70, MCF-7 cells (immunofluorescence); format: cell-based, human; conditions: MCF-7, 0.5 μM, 3 hrs
Procedure: as §1

Structure (SMILES): CN(NC(=O)CC(=O)NN(C)C(=S)c1ccccc1)C(=S)c1ccccc1 [Compound 1]
- Hsp70 on the surface of cells (Hsp70 [1]; 0.05 μM): bright pink fluorescent color on the surface of the cells indicating Hsp70
- Hsp70 on the surface of cells (Hsp70 [1]; 0.1 μM): brighter than when cells were treated with 0.05 μM of Compound 1
- Hsp70 on the surface of cells (Hsp70 [1]; 0.5 μM): brighter than when cells were treated with 0.05 μM of Compound 1 but about the same as cells treated with 0.1 KIM
- serious side effects [2]: No serious side effects specifically attributable to Compound 1 were observed
- generation of ROS (Ramos cells; 0.5 μM, 24 hours): induced the generation of ROS
- earliest time at which induction of ROS was observed (Ramos cells; Ramos cells, time course): 3 h
- increase in lysis compared to cells treated with DMSO alone (HMEC and HRE cells): only slightly increased
- increase in lysis compared to cells treated with DMSO alone (MDA-MB-435 cells): about 15%
- phosphorylation and activation of p38 kinase (p38 kinase): induces the phosphorylation and activation of p38 kinase in a dose dependent manner
- Hsp70 RNA expression induction (Hsp70 [3]; 3 hours): 3.9 fold
- Hsp70 RNA expression induction (Hsp70 [3]; 6 hours): 8.3 fold
- Hsp70 on the surface of cells (Hsp70 [4]): bright pink fluorescent color on the surface of the cells indicating Hsp70
- Hsp70 on the surface of cells (Hsp70 [4]; then 2 hrs recovery without Compound 1): stronger than immediately following treatment with Compound 1
